Source: patent US20230104936A1, “TRPML MODULATORS” (Casma Therapeutics, Inc., priority 2019, published 2023)

Tested on: TFEB
Experiment: TFEB nuclear translocation assay, HeLa wt cells
Format: cell-based
Settings: 2 hrs compound treatment, Table 1 does not say HeLa wt or TRPML1 KO
Summary of the method: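 Using 20× epifluorescence of fixed, anti-TFEB-stained HeLa wt cells treated 2 hrs with compound, nuclear versus perinuclear ring intensity was quantified over four fields per well, yielding AC50 values.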

Row | SMILES | AC50 [nM] | AC50 (Homo sapiens, HeLa, 2 h) [nM]
1 | CC(c1cccc(F)c1N1CCC(C)(C(F)F)CC1)S(=O)(=O)c1ccc(C(F)F)cc1 (single isomer, unassigned) [Compound A-964, 4-(difluoromethyl)-1-(2-(1-((4-(difluoromethyl)phenyl)sulfonyl)ethyl)-6-fluorophenyl)-4-methylpiperidine] | ≤ 2000 | 
2 | CC(=O)Nc1cccc(NS(=O)(=O)c2ccc(S(=O)(=O)N(C)C)cc2)c1N1CCCCC1 [Compound A-827, N-{3-[4-(dimethylsulfamoyl)benzenesulfonamido]-2-(piperidin-1-yl)phenyl}acetamide] |  | ≥ 10000
3 | CC(C)(C)C(=O)N1CCN(c2ccccc2NS(=O)(=O)c2ccc(C(C)(C)C#N)cc2)CC1 [Compound A-535, 4-(1-cyano-1-methylethyl)-N-{2-[4-(2,2-dimethylpropanoyl)piperazin-1-yl]phenyl}benzene-1-sulfonamide] |  | 2010 to 8000
4 | CN(C)S(=O)(=O)c1ccc(S(=O)(=O)Nc2ccccc2N2CCN(C(=O)[C@@]34CCC[C@@H]3C4)CC2)cc1 (racemic) [Compound A-477, rac-N4-(2-{4-[(1R,5R)-bicyclo[3.1.0]hexane-1-carbonyl]piperazin-1-yl}phenyl)-N1,N1-dimethylbenzene-1,4-disulfonamide] |  | 2010 to 8000
5 | CN(C)S(=O)(=O)c1ccc(S(=O)(=O)Nc2ccccc2N2CCN(C34CC(C3)C4)CC2)cc1 [Compound A-179, N4-[2-(4-{bicyclo[1.1.1]pentan-1-yl}piperazin-1-yl)phenyl]-N1,N1-dimethylbenzene-1,4-disulfonamide] |  | ≤ 2000
6 | CN(C)S(=O)(=O)c1ccc(S(=O)(=O)Nc2ccccc2N2CCN(CC3CCOC3)CC2)cc1 (centres unmarked) [Compound A-509, N1,N1-dimethyl-N4-(2-{4-[(oxolan-3-yl)methyl]piperazin-1-yl}phenyl)benzene-1,4-disulfonamide] |  | 2010 to 8000
7 | CN(C)S(=O)(=O)c1ccc(S(=O)(=O)Nc2ccc3ccnn3c2N2CCCCC2)cc1 [Compound A-793, N1,N1-dimethyl-N4-[7-(piperidin-1-yl)pyrazolo[1,5-a]pyridin-6-yl]benzene-1,4-disulfonamide] |  | 2010 to 8000
8 | COCC1(C)CCN(c2ccccc2NS(=O)(=O)Cc2cccc(S(C)(=O)=O)c2)CC1 [Compound A-586, l-(3-methanesulfonylphenyl)-N-{2-[4-(methoxymethyl)-4-methylpiperidin-1-yl]phenyl}methanesulfonamide] |  | 8010 to 9990
9 | CN(C)S(=O)(=O)c1ccc(S(=O)(=O)Nc2ccccc2N2CC3(CN(c4ccc(Cl)cc4F)C3)C2)cc1 [Compound A-296, N1-(2-(6-(4-chloro-2-fluorophenyl)-2,6-diazaspiro[3.3]heptan-2-yl)phenyl)-N4,N4-dimethylbenzene-1,4-disulfonamide] |  | 2010 to 8000
10 | CC(C)(C)C(=O)N1CCN(c2ccccc2NS(=O)(=O)c2ccc(OC(F)(F)F)cc2)CC1 [Compound A-568, N-{2-[4-(2,2-dimethylpropanoyl)piperazin-1-yl]phenyl}-4-(trifluoromethoxy)benzene-1-sulfonamide] |  | 8010 to 9990
11 | CN(C)S(=O)(=O)c1ccc(S(=O)(=O)Nc2ccccc2N2CCC(c3ccccc3C(=O)O)CC2)cc1 [Compound A-259, 2-(1-{2-[4-(dimethylsulfamoyl)benzenesulfonamido]phenyl}piperidin-4-yl)benzoic acid] |  | ≥ 10000
12 | Cc1nn(S(=O)(=O)c2ccc(S(=O)(=O)N(C)C)cc2)cc1C1=CCN(c2ccc(Cl)cc2F)CC1 [Compound A-37, 4-({4-[1-(4-chloro-2-fluorophenyl)-1,2,3,6-tetrahydropyridin-4-yl]-3-methyl-1H-pyrazol-1-yl}sulfonyl)-N,N-dimethylbenzene-1-sulfonamide] |  | 2010 to 8000
13 | O=S(=O)(Nc1cccc(Cl)c1N1CCOCC1)c1cnn2c1CCCC2 [Compound A-369, N-[3-chloro-2-(morpholin-4-yl)phenyl]-4H,5H,6H,7H-pyrazolo[1,5-a]pyridine-3-sulfonamide] |  | ≥ 10000
14 | CCC1(N2CCCC2)CCN(c2ccccc2NS(=O)(=O)c2ccc(S(=O)(=O)N(C)C)cc2)CC1 [Compound A-452, N4-{2-[4-ethyl-4-(pyrrolidin-1-yl)piperidin-1-yl]phenyl}-N1,N1-dimethylbenzene-1,4-disulfonamide] |  | 8010 to 9990
15 | O=S(=O)(Nc1cc(Cl)ccc1N1CCCC2(COC2)C1)c1ccc2c(c1)CCC2 [Compound A-345, N-(5-chloro-2-{2-oxa-6-azaspiro[3.5]nonan-6-yl}phenyl)-2,3-dihydro-1H-indene-5-sulfonamide] |  | 2010 to 8000
16 | CN(C)S(=O)(=O)c1ccc(S(=O)(=O)Nc2ccccc2N2CCN(C(=O)[C@@H]3C[C@@H]4CC[C@H]3O4)CC2)cc1 (racemic) [Compound A-449, rac-N1,N1-dimethyl-N4-(2-{4-[(1R,2R,4S)-7-oxabicyclo[2.2.1]heptane-2-carbonyl]piperazin-1-yl}phenyl)benzene-1,4-disulfonamide] |  | 2010 to 8000

Row | SMILES | AC50 [nM] | AC50 (Homo sapiens, HeLa, 2 h) [nM]
17 | COC1(CN2C[C@@H](C)O[C@@H](C)C2)CCN(c2c(F)cccc2NS(=O)(=O)c2ccc(S(=O)(=O)N(C)C)cc2)CC1 [Compound A-786, N4-[2-(4-[(2R,6S)-2,6-dimethylmorpholin-4-yl]methyl-4-methoxypiperidin-1-yl)-3-fluorophenyl]-N1,N1-dimethylbenzene-1,4-disulfonamide] |  | ≤ 2000
18 | CN(C)S(=O)(=O)c1ccc(S(=O)(=O)Nc2ccccc2N2CCN(C(=O)C34CC5CC(CC(C5)C3)C4)CC2)cc1 [Compound A-399, N4-{2-[4-(adamantane-1-carbonyl)piperazin-1-yl]phenyl}-N1,N1-dimethylbenzene-1,4-disulfonamide] |  | ≤ 2000
19 | C[C@@H]1CN(CC2CCN(c3c(F)cccc3NS(=O)(=O)c3ccc4c(c3)CCC4)CC2)C[C@H](C)O1 [Compound A-759, N-[2-(4-{[(2R,6S)-2,6-dimethylmorpholin-4-yl]methyl}piperidin-1-yl)-3-fluorophenyl]-2,3-dihydro-1H-indene-5-sulfonamide] |  | ≤ 2000
20 | CC(c1cccc(F)c1N1CCC(COC(C)(C)C)CC1)S(=O)(=O)c1ccc(S(=N)(=O)N(C)C)cc1 (single isomer, unassigned) [Compound A-962, 4-((1-(2-(4-(tert-butoxymethyl)piperidin-1-yl)-3-fluorophenyl)ethyl)sulfonyl)-N,N-dimethylbenzenesulfonimidamide] | ≤ 2000 | 
21 | CN(C)S(=N)(=O)c1ccc(S(=O)(=O)Nc2cc(F)ccc2N2CCC(c3c(F)cccc3F)CC2)cc1 (centres unmarked) [Compound A-228, 4-({2-[4-(2,6-difluorophenyl)piperidin-1-yl]-5-fluorophenyl}sulfamoyl)-N,N-dimethylbenzene-1-sulfonoimidamide] |  | ≤ 2000
22 | COCC1(C)CCN(c2ccccc2NS(=O)(=O)c2ccc(CC(C)(C)C)cc2)CC1 [Compound A-489, 4-(2,2-dimethylpropyl)-N-{2-[4-(methoxymethyl)-4-methylpiperidin-1-yl]phenyl}benzene-1-sulfonamide] |  | 2010 to 8000
23 | O=S(=O)(Nc1cc(Cl)ccc1N1CCOC2(CCOCC2)C1)c1ccc2c(c1)CCC2 [Compound A-343, N-(5-chloro-2-{1,9-dioxa-4-azaspiro[5.5]undecan-4-yl}phenyl)-2,3-dihydro-1H-indene-5-sulfonamide] |  | 2010 to 8000
24 | O=S(=O)(Nc1ccccc1N1CCC(c2ccc(Cl)cc2F)CC1)c1cc(F)ccc1F [Compound A-82, N-{2-[4-(4-chloro-2-fluorophenyl)piperidin-1-yl]phenyl}-2,5-difluorobenzene-1-sulfonamide] |  | ≥ 10000
25 | C[C@@H]1COC[C@@H](C)N1C[C@H]1CCN(c2c(F)cccc2NS(=O)(=O)c2ccc(S(=O)(=O)N(C)C)cc2)C1 (relative stereo) [Compound A-897, N4-{2-[(3R)-3-{[3,5-dimethylmorpholin-4-yl]methyl}pyrrolidin-1-yl]-3-fluorophenyl}-N1,N1-dimethylbenzene-1,4-disulfonamide] |  | ≤ 2000
26 | Cc1ccc(S(=O)(=O)Nc2ccccc2N2CCC3(CC2)COC(C)(C)C3)cc1 [Compound A-662, N-(2-{3,3-dimethyl-2-oxa-8-azaspiro[4.5]decan-8-yl}phenyl)-4-methylbenzene-1-sulfonamide] |  | ≤ 2000
27 | CN(C)S(=O)(=O)c1ccc(S(=O)(=O)Nc2ccccc2N2CCC(CO)(c3ccc(F)cc3F)CC2)cc1 [Compound A-161, N4-{2-[4-(2,4-difluorophenyl)-4-(hydroxymethyl)piperidin-1-yl]phenyl}-N1,N1-dimethylbenzene-1,4-disulfonamide] |  | 2010 to 8000
28 | O=S(=O)(Nc1ccccc1N1CCC(c2ccc(Cl)cc2F)CC1)c1ccc(C(F)(F)F)cc1 [Compound A-83, N-{2-[4-(4-chloro-2-fluorophenyl)piperidin-1-yl]phenyl}-4-(trifluoromethyl)benzene-1-sulfonamide] |  | ≤ 2000
29 | CN(C)S(=O)(=O)c1ccc(S(=O)(=O)Cc2ccccc2N2CCN(Cc3ccccc3)CC2)cc1 [Compound A-406, 4-((2-(4-benzylpiperazin-1-yl)benzyl)sulfonyl)-N,N-dimethylbenzenesulfonamide] |  | 2010 to 8000
30 | C[C@@H]1CN(CC2CCN(c3c(F)cccc3[C@@H](C)S(=O)(=O)c3ccc(S(=O)(=O)N(C)C)cc3)CC2)C[C@H](C)O1 [Compound A-782, 4-[(1R)-1-[2-(4-{[(2R,6S)-2,6-dimethylmorpholin-4-yl]methyl}piperidin-1-yl)-3-fluorophenyl]ethanesulfonyl]-N,N-dimethylbenzene-1-sulfonamide] |  | ≤ 2000
31 | COCC1(C)CCN(c2ccccc2NS(=O)(=O)c2ccc(C)c(F)c2)CC1 [Compound A-617, 3-fluoro-N-{2-[4-(methoxymethyl)-4-methylpiperidin-1-yl]phenyl}-4-methylbenzene-1-sulfonamide] |  | 2010 to 8000
32 | CC1(C)CC2(CCN(c3ccccc3NS(=O)(=O)c3ccc4c(c3)CC(C)(C)C4=O)CC2)CO1 [Compound A-638, N-(2-{3,3-dimethyl-2-oxa-8-azaspiro[4.5]decan-8-yl}phenyl)-2,2-dimethyl-1-oxo-2,3-dihydro-1H-indene-5-sulfonamide] |  | 2010 to 8000
